“Also recorded” adds a separate entry of the source.
Key:
[1] = molecular target: T1, NEDD4-1 HECT domain (Homo sapiens, UniProt P46934); assay: In vitro ubiquitination assays; type: biochemical; conditions: NEDD4-1 HECT pretreated with 1 mM compound for 3 h, quenched after 5 min
T1 construct: to elute NEDD4-1 HECT domain (50 mM HEPES, 150 mM NaCl, 0.1 mM EDTA 1 mM DTT); GST (N, cleaved yes); made in house; host or cells: E. coli BL21
T1 sequence (P46934 with tags, fused parts or gaps): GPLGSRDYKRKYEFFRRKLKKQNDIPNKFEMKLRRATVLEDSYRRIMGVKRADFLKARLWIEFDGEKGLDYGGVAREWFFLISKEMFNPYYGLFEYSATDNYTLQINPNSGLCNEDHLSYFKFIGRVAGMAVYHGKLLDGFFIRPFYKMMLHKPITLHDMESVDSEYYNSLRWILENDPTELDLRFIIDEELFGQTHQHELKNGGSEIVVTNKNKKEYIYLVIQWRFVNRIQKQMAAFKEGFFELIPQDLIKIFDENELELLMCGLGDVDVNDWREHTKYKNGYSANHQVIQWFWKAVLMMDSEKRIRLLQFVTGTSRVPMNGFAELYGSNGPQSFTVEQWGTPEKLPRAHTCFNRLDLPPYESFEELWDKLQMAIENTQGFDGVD
Protocol: FIG. 15A, FIG. 15B and FIG. 15C. (FIG. 15A) Enzymatic assay with compounds 1, 2, and 4. NEDD4-1 HECT domain was pretreated with 1% DMSO (lane 1), or 1 mM of compounds 1 (lane 2), 2 (lane 3), or 4 (lane 4) for 3 h before beginning the assay. The reaction mixtures were quenched after 5 min, and polyubiquitin chains were detected by Western blot with anti-ubiquitin antibody. (FIG. 15B) Cartoon depiction of the crystal structure of NEDD4-1:1 with key side chains and the inhibitor shown as spheres. (FIG. 15C) Close-up view of the inhibitor-binding site with the key side chains depicted as sticks and colored by atom type. The 2FO-FC electron density map (mesh, contoured at 1.0 σ) is presented for Cys^627 and 1.
FIG. 16A, FIG. 16B, FIG. 16C and FIG. 16D. (FIG. 16A) and (FIG. 16B) Compound 6 disrupts the NEDD4-1:Ub interaction as shown by a fluorescence polarization assay. Mean±s.e.m., n=3. (FIG. 16C) Compound 6 inhibits the ability of NEDD4-1 to polyubiquitinate the Wbp2-C-K222 protein substrate. NEDD4-1 was pretreated with 1% DMSO (lane 1), or 100 μM of compound 6 (lane 2) or compound 4 (lane 3) for 1.5 h before beginning the assay. Reaction mixtures were quenched at the indicated times and the amount of ubiquitinated Wbp2-C-K222 was determined using in-gel fluorescence. (FIG. 16D) Quantification of polyubiquitin chains in FIG. 16B. Mean±s.e.m., n=2. […]

[2] = molecular target: T1, NEDD4-1 HECT domain; assay: Covalent labeling of NEDD4-1 HECT domain (gel filtration, whole protein ESI-MS); type: binding
Protocol: 10 μM of NEDD4-1 HECT domain in 50 mM HEPES 150 mM NaCl 0.1 mM EDTA 1 mM DTT pH 7.5 was treated with a mixture of ten fragments (from 10 mM each DMSO stock solution mixtures; final concentrations: 100 μM of each fragment, and 1% DMSO). Fragment structures and mixture compositions were the same as reported previously. The reaction mixture was incubated for 4 h at 23° C. before being passed through Zeba gel filtration columns (Thermo, 7K MWCO) to remove unreacted fragments. The protein solution was then immediately analyzed by whole protein LC/ESI-MS.
Accurate-mass data were obtained on an Agilent 6210A LC-TOF mass spectrometer in positive ion mode using electrospray ionization. Samples were chromatographed on the LC-TOF instrument using a Poroshell 120 EC-C18 HPLC column (2.1*50 mm, 2.7 micron), an Agilent Series 1200 HPLC binary pump, and an Agilent Series 1200 autoinjector. The HPLC column was held at 45° C. and the autosampler was held at 8° C. Mobile Phase A was a solution of 0.1% formic acid in water:acetonitrile (19:1). Mobile Phase B was a solution of 0.1% formic acid in acetonitrile. The flow rate was set to 250 μL/min. The gradient used was 0% B for 2 minutes, ramping linearly to 90% B from 2 minutes to 5 minutes, holding at 90% B from 5 minutes to 7 minutes, and then returning to 0% B at 7.1 minutes. The column was allowed to equilibrate for 2.7 minutes before the next injection was initiated. The eluent from the column was diverted to waste for the first 2 minutes. The spectra were acquired from 301 to 3200 daltons using a gas temperature of 340° C., a gas flow of 7 liters/min, and the nebulizer gas at 35 psi. The following voltages were used: capillary 4200 V, fragmentor 230V, skimmer 64V, and octapole RF peak 250V. Spectra were acquired at a rate of 1 spectra/sec. The data was processed using MassHunter software version B.02.00. Maximum entropy deconvolutions were performed with a Mass Step of 1, S/N Threshold of 30, Average Mass at 90% of Peak Height, and 5 Charge States Minimum.
10 μM of NEDD4-1 HECT domain in 50 mM HEPES 150 mM NaCl 0.1 mM EDTA 1 mM DTT pH 7.5 was treated with 1 mM of inhibitor 1 or 2 (from 100 mM DMSO stock solution; final concentrations: 1 mM of inhibitor, 1% DMSO, and 0.2% CHAPS to solubilize the inhibitors at 1 mM). The reaction mixture was incubated for 4 h at 23° C. before being passed through Zeba gel filtration columns (Thermo, 7K MWCO) to remove unreacted inhibitor. The protein solution was then immediately used for crystallization or enzymatic assay.

[3] = molecular target: T2, NEDD4-1 HECT:ubiquitin-fluorescein interaction (Homo sapiens, UniProt P46934); assay: Fluorescence polarization assay of NEDD4-1:Ub binding; conditions: NEDD4-1 HECT 7.98 μM, ubiquitin-fluorescein 50 nM, 1 h
T2 construct: to elute NEDD4-1 HECT domain (50 mM HEPES, 150 mM NaCl, 0.1 mM EDTA 1 mM DTT); GST (N, cleaved yes); made in house; host or cells: E. coli BL21
T2 sequence (P46934 with tags, fused parts or gaps): T1 sequence (P46934 with tags, fused parts or gaps)
Protocol: NEDD4-1 HECT (7.98 μM) and ubiquitin-fluorescein (50 nM, Lifesensors) in 50 mM HEPES pH 7.5 150 mM NaCl 0.1 mM EDTA were treated with DMSO or varying concentrations of inhibitor in 1% DMSO in black 96 well plates. Changes in fluorescence polarization were monitored over 1 h with a Biotek Synergy 4 plate reader. Slopes of ln(polarization) vs. time were plotted with GraphPad Prism and used to determine the pseudo-first order rate contstant kobs for a given concentration of inhibitor. The values of kinact/KI for each inhibitor were then determined by fitting the kobs vs. [inhibitor] plot to the equation kobs=kinact*[inhibitor]/([inhibitor]+KI). All reactions were performed in triplicate and plotted as mean±s.e.m.

[4] = molecular target: T3, NEDD4-1 (~120 kDa band) in TC71 Ewing's sarcoma cells (Homo sapiens, UniProt P46934); assay: Cell-based selectivity studies with alkyne probe 15, click reaction, in-gel fluorescence; conditions: pretreatment 1 h, then 2 μM probe 15
T3 sequence (P46934 1-900 isoform P46934-4): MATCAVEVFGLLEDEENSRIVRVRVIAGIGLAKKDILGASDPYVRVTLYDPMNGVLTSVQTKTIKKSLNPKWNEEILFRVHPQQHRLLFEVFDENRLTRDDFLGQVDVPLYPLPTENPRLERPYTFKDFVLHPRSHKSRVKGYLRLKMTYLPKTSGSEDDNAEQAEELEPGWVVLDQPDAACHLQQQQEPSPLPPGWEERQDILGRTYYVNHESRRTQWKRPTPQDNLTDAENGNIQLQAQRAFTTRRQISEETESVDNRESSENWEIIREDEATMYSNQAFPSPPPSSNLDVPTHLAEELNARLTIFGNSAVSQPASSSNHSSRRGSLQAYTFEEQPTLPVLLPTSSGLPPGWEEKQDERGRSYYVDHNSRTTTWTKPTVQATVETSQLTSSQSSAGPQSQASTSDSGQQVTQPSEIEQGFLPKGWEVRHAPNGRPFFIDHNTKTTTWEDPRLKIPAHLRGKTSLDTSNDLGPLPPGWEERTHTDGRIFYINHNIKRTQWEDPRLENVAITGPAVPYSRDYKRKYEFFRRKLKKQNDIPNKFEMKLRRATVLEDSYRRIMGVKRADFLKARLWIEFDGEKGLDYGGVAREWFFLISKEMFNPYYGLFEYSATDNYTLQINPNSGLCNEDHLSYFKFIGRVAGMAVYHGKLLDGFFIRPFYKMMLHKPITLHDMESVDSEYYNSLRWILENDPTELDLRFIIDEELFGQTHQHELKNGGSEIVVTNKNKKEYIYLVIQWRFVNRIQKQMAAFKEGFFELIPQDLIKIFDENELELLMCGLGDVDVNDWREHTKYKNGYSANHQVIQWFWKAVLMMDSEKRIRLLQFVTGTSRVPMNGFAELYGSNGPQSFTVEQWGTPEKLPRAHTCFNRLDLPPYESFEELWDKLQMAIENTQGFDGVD
Protocol: We treated TC71 Ewing's sarcoma cells (NEDD4-1 positive),^[6b] with 2 μM of compound 15, followed by lysis, click reaction with rhodamine azide, and in-gel fluorescence.^[15]
TC71 cells were cultured in Iscove's Modified Dulbecco's Medium (IMDM), 20% (v/v) FBS, 4 mM glutamine, and lx ITS (5 μg/mL insulin, 5 μg/mL transferrin, 5 ng/mL selenous acid). Cells were grown to confluence in 6-well plates (9.6 cm^2 per well). The growth medium was aspirated off and replaced with 2 mL serum-free IMDM containing 0.1% DMSO or the indicated concentration of inhibitor in 0.1% DMSO. After 1 h incubation time at 37° C., cells were treated with 0.1% DMSO or 2 μM of probe 15 in 0.1% DMSO for an additional hour. […] Proteins were then resolved by SDS-PAGE 7.5% or 15% acrylamide gels, and subjected to in-gel scanning fluorescence imaging on the Typhoon 9400 at 610 nm excitation. The gel was then stained with Coomassie Brilliant Blue to visualize all proteins. Western blots were performed with anti-NEDD4-1 antibody from Cell Signaling (2740S).

What does the source list for `COC(=O)/C=C/CNC(=O)c1c(C)n(C)c2ccc(OC)cc12` [Compound 1, Methyl(E)-4-(5-methoxy-1,2-dimethyl-1H-indole-3-carboxamido)but-2-enoate]?
polyubiquitin chain assembly by NEDD4-1 (anti-ubiquitin Western blot) [1]: defective at assembling polyubiquitin chains; also recorded: inhibition of polyubiquitization; labeling of NEDD4-1 ([2]; compound 100 μM, NEDD4-1 10 μM, 4 h): ~40%; labeling of NEDD4-1 HECT domain (qualitative) ([2]; compound 100 μM, NEDD4-1 HECT 10 μM, 4 h): monolabel; labeling of NEDD4-1 in the presence of ubiquitin ([2]; compound 100 μM, NEDD4-1 HECT 10 μM, ubiquitin 60 μM, 4 h): completely inhibited; modification of NEDD4-1 HECT domain at 1 mM ([2]; compound 1 mM, 3-4 h): complete modification; also recorded: fully labels NEDD4-1 HECT domain after 3 h, with minor non-specific dilabeling; covalent modification of NEDD4-1 HECT domain in the mixture screen ([2]; ten mixtures of ten fragments, 100 μM each, 4 h): weak covalent modifiers

For `COC(=O)/C=C/CNC(=O)c1c[nH]nc1-c1cccc(F)c1` [Compound 4, Methyl(E)-4-(3-(3-fluorophenyl)-1H-pyrazole-4-carboxamido)but-2-enoate], which “polyubiquitin chain assembly by NEDD4-1 (anti-ubiquitin Western blot)” value [1] is on record?
Its value is “did not affect NEDD4-1 activity”.

`COC(=O)/C=C/CNC(=O)c1c(C)n(C2CCCC2)c2ccc(OC)cc12` [Compound 6] was tested. Which kinact [3] did it give?
The kinact was 5.8e-05 s⁻¹.

What about the KI (inactivation constant) ([3]; read-out: K1 (disruption of NEDD4-1:Ub binding)) of the same molecule?
Its KI (inactivation constant) is 29.3 µM.

For `COC(=O)/C=C/CNC(=O)c1c(C)n(C)c2ccccc12` [Compound 11, Methyl(E)-4-(1,2-dimethyl-1H-indole-3-carboxamido)but-2-enoate], which “effect of pretreatment on probe 15 labeling of the ~120 kDa band (NEDD4-1)” value [4] is on record?
The value was “inactive”.
